Measurements: patent US10925858B2, “S-nitrosoglutathione (GSNO) and GSNO reductase inhibitors for use in therapy” (MUSC FOUNDATION FOR RESEARCH DEVELOPMENT, priority 2017, dated 2021)

What was measured:
lymphocytes in blood = assay: Total lymphocyte count in blood of normal mice (lymphopenic effect); type: in vivo, C57BL/6 mice; details: normal mice without EAE, 1 mg/kg/day for 19 days
Method: The bloods collected in EDTA blood collection tubes (BD Biosciences) were analyzed by an automated hematology analyzer for counting total lymphocytes. For counting of each subset of lymphocytes, 50 μl of blood was mixed with staining buffer (20 μl) containing fluorescence labelled antibodies and red-blood-cells were lysed with FACS lysing solution (BD Biosciences) prior to fluorescence flow-cytometric analysis. For staining of CD3+, CD4+, and CD8+ cells, allophycocvanin (APC)-labeled anti-mouse CD3 (eBioscience clone 17A2), Fluorescein isothiocyanate (FITC)-labeled anti-mouse CD4 (eBioscience clone RM4-5), APC-labeled anti-mouse CD8 (eBioscience clone 53-6.7) and appropriate isotype matched controls.

myosin light chain (MLC) = assay: Western analysis of MLC phosphorylation (Ser19) in thrombin treated hBMVECs; type: cell-based, human; details: thrombin 0.1 unit/ml 5 min; L-NIO or FeTPPS 10 μM; GSNO or SIN-1 various concentrations
Method: Cell culture: Primary human brain microvascular endothelial cells (hBMVECs) were purchased from Angio-Proteomie (Cat #: cAP-0002, Atlanta, Ga.). The cells were cultured in cell culture flasks or plates precoated with Quick Coating Solution (Angio-Proteomie; Cat #: cAP-01) and maintained in Endothelial Growth Medium (Angio-Proteomie; Cat #: cAP-02) at 37° C. under 5% CO2/95% air. When the cells were almost confluent, the medium was replaced with endothelial basal medium (Angio-Proteomie; Cat #: cAP-03) containing 0.5% fetal bovine serum (FBS; Life Technologies, Grand Island, N.Y.) about 8-12 hours before the experiment. No institutional approval was required for this study. The study was not pre-registered.
Western immunoblot analysis was performed by standard method using 50 μg of cell lysates. Following the SDS-PAGE electrophoresis, proteins were transferred from the gel onto the Polyvinylidene fluoride membrane (GE Healthcare Life Sciences, Marlborough, Mass.). Membranes were blocked with non-fat dry milk (Santa Cruz Biotechnology) or I-Block™ (ThermoFisher Scientific, Waltham, Mass.) for detection of phospho-proteins and incubated with primary antibodies, such as MBP (Santa Cruz Biotech Cat #: sc13914; RRID: AB_648798), phospho-(Ser^19) MLC (Abeam, Cat #: ab2480; RRID: AB_303094), MLC (Abeam, Cat #: ab79935; RRID:AB_1952220), P-actin (Santa Cruz Biotechnology, Cat #: sc-47778; RRID:AB_2714189), phospho-eNOS (Ser^1177) (Cell Signaling, Cat #: 9571; RRID: AB_329837, Danvers, Mass.), eNOS (Cell Signaling, Cat #: 32027), RhoA (Santa Cruz Biotechnology; Cat #: sc418; RRID: AB_628218) or 3-nitrotyrosine (Abeam, Cat #: ab61392; RRID: AB_942087). Following washing, the membranes were incubated with horseradish peroxidase conjugated secondary antibody (Jackson Immunoresearch Lab, West Grove, Pa.), washed and then incubated with ECL reagent (Amersham Life Science, Pittsbrugh, Pa.), and exposed to Amersham Hyperfilm ECL film

EAE mice = assay: EAE (MOG35-55) clinical disease, GSNO vs FeTPPS; type: in vivo, C57BL/6J mice; details: GSNO 1 mg/kg/i.p./day or FeTPPS 30 mg/kg/i.p./day from disease onset (day 13)
Method: (§1) EAE was induced as described previously (Nath et al., 2009). Animal procedures were approved by the institutional animal care and use committee of MUSC (AR #1644). Briefly, female C57BL/6J mice of 8-12 weeks of age weighing 18-22 g (The Jackson Laboratory, Bar Harbor, Me., USA) were randomly divided into four groups: 1) EAE animals treated with vehicle (EAE; n=8), 2) EAE with GSNO (1 mg/kg body weight per day; i.p.) treatment (EAE+GSNO; n=12), 3) EAE with FeTPPS (30 mg/kg body weight per day; i.p.) treatment (EAE+FeTPPS; n=8), 4) control with vehicle (Ctrl; n=8). The group size was determined by power analysis based on our previous data (Nadi et al., 2009). Then, the mice were immunized subcutaneously in the flank regions with MOG35-55 peptide (MOG; 200 ug; Peptide International) emulsified (1:1) in 100 ul complete Freund's adjuvant (CFA) CHI day 0 and day 7. […] Clinical signs of EAE were scored in animal facility in a blinded fashion to experimenter between 2 and 4 pm daily by examiners blinded to experimental treatments using the following scale: 0=no clinical signs of disease; 1=limp tail or waddling gait with tail tonicity; 2=waddling gait with limp tail (ataxia); 2.5=ataxia with partial limb paralysis; 3=full paralysis of one limb; 3.5=full paralysis of one limb with partial paralysis of second limb; 4=full paralysis of two limbs; 4.5=moribund stage; 5=death. […]

BBB leakage = assay: Evan's blue extravasation assay (BBB leakage) in EAE mice; type: in vivo, C57BL/6J mice; details: GSNO 1 mg/kg/day or FeTPPS 30 mg/kg/day i.p.
Method: as §1

numbers of total lymphocytes, CD3+ T cells, CD4+ T cells and CD8+ cells in blood (lymphocytes in blood)	SMILES	thrombin-induced MLC phosphorylation (myosin light chain (MLC))	efficacy against clinical disease of EAE (EAE mice)	extravasation of Evan's blue dye into the CNS (BBB leakage)
no obvious effect	N[C@@H](CCC(=O)N[C@@H](CSN=O)C(=O)NCC(=O)O)C(=O)O [GSNO, S-nitrosoglutathione]	attenuated	great efficacy	significantly decreased
did not affect	Cc1cc(C(N)=O)ccc1-n1c(CCC(=O)O)ccc1-c1ccc(-n2ccnc2)cc1 [N6022, reference compound]			
	Cl.O=S(=O)([O-])c1ccc(-c2c3nc(c(-c4ccc(S(=O)(=O)O)cc4)c4ccc([nH]4)c(-c4ccc(S(=O)(=O)O)cc4)c4nc(c(-c5ccc(S(=O)(=O)O)cc5)c5ccc2[nH]5)C=C4)C=C3)cc1.[Fe] [FeTPPS, 5,10,15,20-Tetrakis(4-sulfonatophenyl)porphyrinato Iron (III), Cl, reference compound]	inhibited	significant efficacy but to a lower degree than GSNO treatment	significantly decreased
